Molecules are shown by their SMILES.

This is an account of results in patent publication US20090054629A1, “Inhibitors of Transthyretin Amyloid Fibril Formation” (THE SCRIPPS RESEARCH INSTITUTE, priority 2005, published 2009).

In this assay the target is T1, WT-TTR (Homo sapiens, UniProt P02766).
T1 construct: TTR is a 127-residue β-sheet rich homotetramer; made in house; host or cells: Escherichia coli
In words: Acid-mediated (pH 4.4) TTR fibril formation assay (turbidity). In kind it is biochemical. To be noted: inhibitor 7.2 μM, tetrameric TTR 3.6 μM, pH 4.4, 72 h. How it is done: The inhibitory activity of the oxime ethers (7.2 μM) against acid-mediated (pH 4.4) TTR (3.6 μM) amyloid formation is summarized in FIG. 10.
Wild type TTR was purified from an Escherichia coli expression system as described previously (Lashuel, H. A.; et al. Biochemistry 1999, 38, 13560-13573). Disposable cuvettes (Fisher #14 385 938) were charged with 495 μL of a 0.4 mg/mL stock of TTR (7.2 μM) in 10 mM phosphate (pH 7.2), 100 mM KCl, 1 mM EDTA, and 0.2% NaN3. 5 μL of the inhibitors in DMSO (1.44 mM) were added to the TTR solutions and the samples were incubated for 30 min at 37° C. The pH was then lowered to 4.4 by addition of 0.5 mL of 200 mM acetate buffer (pH 4.2, 100 mM KCI, 1 mM EDTA, 0.2% NaN3) to each cuvette. The cuvettes were left undisturbed for 72 h at 37° C., then vortexed to evenly distribute any precipitate throughout the sample. The turbidity was measured on a Hewlett Packard model 8453 UV-Vis Spectrophotometer at 350 and 400, or 500 nm. All samples were performed in duplicate or triplicate and results reported are representative examples of at least three analyses.
FIG. 4 is a table showing the activities of the 96 bisarylhydrazones that were tested for inhibition of fibril formation. Bisarylhydrazone activity (7.2 μM) against WT-TTR (3.6 μM) amyloid fibril formation at pH 4.4 (72 h). […]

Usually inhibition stands for the relative decrease from the control value, in per cent. Molecule `Oc1cc(Cl)cc(Cl)c1` [3,5-Dichlorophenol] registered an inhibition at 7.2 µM of 86%.
